From paper PMC10281575, “PfCRT mutations conferring piperaquine resistance in falciparum malaria shape the kinetics of quinoline drug binding and transport” (PLOS Pathogens, 2023)
Values joined by “and” are separate entries in the source; they are usually repeats but may differ in a detail not shown here. Equal values may be shown once. Read-outs that look alike come from different tables or passages of the source.

Target: T1, PfCRT^Dd2 (Plasmodium falciparum, UniProt Q8IBZ9, A220S/I356T/K76T/M74I/N326S/N75E/Q271E/R371I)
T1 sequence (Q8IBZ9 1-424 M74I/N75E/K76T/A220S/Q271E/N326S/I356T/R371I): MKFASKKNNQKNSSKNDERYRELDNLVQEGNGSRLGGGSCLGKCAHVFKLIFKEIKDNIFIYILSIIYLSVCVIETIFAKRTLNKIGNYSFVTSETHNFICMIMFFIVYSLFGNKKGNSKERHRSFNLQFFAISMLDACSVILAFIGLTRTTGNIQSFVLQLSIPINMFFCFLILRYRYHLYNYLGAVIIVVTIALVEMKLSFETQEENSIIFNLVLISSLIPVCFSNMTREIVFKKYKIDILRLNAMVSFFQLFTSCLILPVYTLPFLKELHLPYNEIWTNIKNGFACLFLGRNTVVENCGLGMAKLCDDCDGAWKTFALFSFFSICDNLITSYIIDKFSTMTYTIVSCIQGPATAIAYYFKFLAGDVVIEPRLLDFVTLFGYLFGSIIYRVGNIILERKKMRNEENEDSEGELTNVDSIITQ
Assay: Competition kinetics of drug transport (radiolabeled substrate plus cold inhibitor), PfCRT^Dd2-expressing oocytes
Type: cell-based
Parameters: expressed in transfected cells; host or cells: Xenopus laevis oocytes injected with in vitro transcribed RNA (pSP64T)
Settings: for PfCRTDd2-mediated CQ transport 500 µM CQ: single replicates; for Vmax, maximal velocity of drug transport: global fit; for β, partiality factor: factor on transport of the labeled drug by the other drug
Description: The experimental procedure and the data analysis were as described above.
The difference between the two models lies in the value of α, a parameter describing how much the affinity for the substrate changes when the inhibitor is already bound, and vice versa. […] The resulting Vmax,app values and the Vmax,app/KM,app ratios were plotted as a function of the inhibitor concentration (Fig 5A).
Drug transport assays were performed as previously described. Briefly, measurements of radiolabeled drug uptake were made over 1 h, unless otherwise specified. […] Where specified, one or more unlabeled drugs were also present at the indicated concentrations. […] The uptake assays were terminated by removing the oocytes from the reaction medium and washing them three times with 2 mL of ice-cold ND96 buffer. Each oocyte was transferred to a separate scintillation vial and lysed by the addition of 200 μL of a 5% SDS solution. The radioactivity in the sample was measured using a liquid scintillation analyser Tri-Carb 4910 TR (PerkinElmer). Water-injected oocytes were analyzed in parallel as a negative control. The buffer from each condition was measured in duplicate in parallel to each experiment to transform counts per minute into pmol of drug. Drug uptake attributable to PfCRT was determined by subtracting the background uptake from water-injected oocytes from that of PfCRT-expressing oocytes. In all cases, at least three independent experiments were performed on oocytes from different frogs, and for each condition in an experiment, measurements were made from 10 oocytes per treatment.
The following equations were adopted from Segel (1993), and the reader is referred to that text for the assumptions made in the author’s approach in the derivation of each equation [31]. The concentration of substrate is denoted as [S1] and the concentration of the inhibiting substrate is denoted as [S2]. KS1 and KS2 are the dissociation constants for the respective substrate-protein complexes.
Analyses of the kinetic data were performed using SigmaPlot version 13.0 and Python. The drug competition models were globally fit to the kinetic data using the least-squares method and ranked according to their corrected Akaike information criterion difference (ΔAICC) and their Akaike weight, using Python. The two top-ranked models were compared using an F-test.
This factor reflects how much the affinity of the transporter for one drug changes when the other drug is already bound in the protein cavity. In the former model, α > 0 and α ≠ 1. In the latter model, it could be thought of as if α = 1. Because of this, discriminating between the two models also means determining the value of α. In Mixed-type (Partial) inhibition, the apparent maximal velocity (Vmax,app) is given by Eq 22, Vmax,app=Vmax(1+β[S2]/αKS2)/(1+[S2]/αKS2) (Eq 22)
Vmax,app is the maximal rate of substrate transport at a certain inhibitor concentration. The half-maximal inhibitory concentration is given by the term in the denominator different from [S2], which in this case is αKS2. This means that by plotting Vmax,app as a function of [S2], the value of αKS2 can be derived after fitting the curve to Eq 23.
The half-maximal inhibitory concentration derived from this hyperbolic equation is equal to KS2. By plotting Vmax,app/KM,app as a function of [S2], one can derive KS2 after fitting the curve to Eq 25. The value of α can then be calculated dividing αKS2 by KS2.

With `CCN(CC)CCCC(C)Nc1ccnc2cc(Cl)ccc12` (stereo not shown) [CQ, chloroquine] the “PfCRTDd2-mediated CQ transport 500 µM CQ” value (0 µM PPQ) was 25.01 pmol oocyte-1 h-1 and 21.69 pmol oocyte-1 h-1 and 19.19 pmol oocyte-1 h-1 and 20.87 pmol oocyte-1 h-1, the “PfCRTDd2-mediated CQ transport 500 µM CQ” value (50 µM PPQ) was 19.01 pmol oocyte-1 h-1 and 16.61 pmol oocyte-1 h-1 and 18.59 pmol oocyte-1 h-1 and the “PfCRTDd2-mediated CQ transport 500 µM CQ” value (125 µM PPQ) was 18.10 pmol oocyte-1 h-1 and 16.11 pmol oocyte-1 h-1 and 15.06 pmol oocyte-1 h-1. For the same molecule, the “PfCRTDd2-mediated CQ transport 500 µM CQ” value (200 µM PPQ) was 12.71 pmol oocyte-1 h-1 and 15.12 pmol oocyte-1 h-1 and 13.60 pmol oocyte-1 h-1, the “PfCRTDd2-mediated CQ transport 500 µM CQ” value (350 µM PPQ) was 12.41 pmol oocyte-1 h-1 and 14.97 pmol oocyte-1 h-1 and 10.99 pmol oocyte-1 h-1 and the “PfCRTDd2-mediated CQ transport 500 µM CQ” value (500 µM PPQ) was 15.66 pmol oocyte-1 h-1 and 9.12 pmol oocyte-1 h-1 and 11.85 pmol oocyte-1 h-1. For the same molecule, the “most plausible inhibition model” value (16 models, ΔAICC, Akaike weight, F-test, label = cold inhibitor of the other drug's transport) was “partial noncompetitive inhibition”, the “Vmax, maximal velocity of drug transport” value (Mixed (Partial) model, drug as radiolabeled substrate) was 33 ± 1 pmol oocyte^-1 h^-1 and the Kd (Mixed (Partial) model, drug as cold inhibitor, read-out: KS, dissociation constant for the PfCRT-substrate complex) was 210 ± 80 µM. The Kd (Mixed (Partial) model, drug as radiolabeled substrate, read-out: KS, dissociation constant for the PfCRT-substrate complex) was 260 ± 25 µM, the “β, partiality factor” value (Mixed (Partial) model) was 0.38 ± 0.06 and the “α, KS interaction factor” value (Mixed (Partial) model, label = radiolabeled substrate, other drug cold inhibitor) was 1.0 ± 0.2. For the same molecule, the “Vmax, maximal velocity of drug transport” value (Noncompetitive (Partial) model, drug as radiolabeled substrate, other drug as cold inhibitor) was 32 pmol oocyte^-1 h^-1 and 32 ± 1 pmol oocyte^-1 h^-1, the Kd (Noncompetitive (Partial) model, drug as cold inhibitor, read-out: KS, dissociation constant for the PfCRT-substrate complex) was 238 µM and 240 µM and the Kd (Noncompetitive (Partial) model, drug as radiolabeled substrate, read-out: KS, dissociation constant for the PfCRT-substrate complex) was 254 µM and 250 µM. For the same molecule, the “β, partiality factor” value (Noncompetitive (Partial) model) was 0.38 and 0.38 ± 0.04, the “KMapp ([3H]CQ + PPQ)” value ([PPQ] 0 µM) was 257.93 µM and the “Vmaxapp ([3H]CQ + PPQ)” value ([PPQ] 0 µM) was 32.70 pmol oocyte-1 h-1. For the same molecule, the “Vmaxapp/KMapp ([3H]CQ + PPQ)” value ([PPQ] 0 µM) was 0.1268 h⁻¹, the “KMapp ([3H]CQ + PPQ)” value ([PPQ] 50 µM) was 250.37 µM and the “Vmaxapp ([3H]CQ + PPQ)” value ([PPQ] 50 µM) was 27.98 pmol oocyte-1 h-1. The “Vmaxapp/KMapp ([3H]CQ + PPQ)” value ([PPQ] 50 µM) was 0.1117 h⁻¹, the “KMapp ([3H]CQ + PPQ)” value ([PPQ] 125 µM) was 258.31 µM and the “Vmaxapp ([3H]CQ + PPQ)” value ([PPQ] 125 µM) was 25.60 pmol oocyte-1 h-1. For the same molecule, the “Vmaxapp/KMapp ([3H]CQ + PPQ)” value ([PPQ] 125 µM) was 0.0991 h⁻¹, the “KMapp ([3H]CQ + PPQ)” value ([PPQ] 200 µM) was 254.40 µM and the “Vmaxapp ([3H]CQ + PPQ)” value ([PPQ] 200 µM) was 21.83 pmol oocyte-1 h-1. The “Vmaxapp/KMapp ([3H]CQ + PPQ)” value ([PPQ] 200 µM) was 0.0858 h⁻¹, the “KMapp ([3H]CQ + PPQ)” value ([PPQ] 350 µM) was 250.34 µM and the “Vmaxapp ([3H]CQ + PPQ)” value ([PPQ] 350 µM) was 19.75 pmol oocyte-1 h-1. For the same molecule, the “Vmaxapp/KMapp ([3H]CQ + PPQ)” value ([PPQ] 350 µM) was 0.0789 h⁻¹, the “KMapp ([3H]CQ + PPQ)” value ([PPQ] 500 µM) was 247.83 µM and the “Vmaxapp ([3H]CQ + PPQ)” value ([PPQ] 500 µM) was 17.90 pmol oocyte-1 h-1. The “Vmaxapp/KMapp ([3H]CQ + PPQ)” value ([PPQ] 500 µM) was 0.0722 h⁻¹, the “β^CQ, partiality factor” value (fractional velocity plot, factor by which PPQ slows down CQ transport) was 0.35 ± 0.06 and the Kd (secondary plot, half-maximum inhibitory concentration of Vmax,app versus inhibitor concentration, read-out: αKS, dissociation constant between the drug and the PfCRT complex with the other drug) was 220 ± 85 µM. The “α (αKS divided by KS)” value (secondary plots, label = prebound drug) was 1.0 ± 0.3.
